Changes are numbered by the printed parent chain. Values joined by “and” are separate entries in the source; they are usually repeats but may differ in a detail not shown here. Identical values can stand only once. Values belong to the compound of their own block, whether it stands above or below them.
Key:
HaloTag7 (HT7) = target: T1, HaloTag7 (HT7) (Rhodococcus sp., UniProt P59336, A155T/A167V/A224E/C128F/C176G/D78G/E160K/E257K/G292T/H272N/K175M/K195N/L47V/L88M/N227D/P291S/S2A/S58T/T264A/V172T/Y273L/Y87F); experiment: HT7 labeling kinetics via stopped flow (fluorescence anisotropy); type: biochemical
T1 construct: made in house; host or cells: E. coli BL21(DE3)-pLysS
T1 sequence (P59336 other isoform, or with tags, fused parts or gaps with the stated changes): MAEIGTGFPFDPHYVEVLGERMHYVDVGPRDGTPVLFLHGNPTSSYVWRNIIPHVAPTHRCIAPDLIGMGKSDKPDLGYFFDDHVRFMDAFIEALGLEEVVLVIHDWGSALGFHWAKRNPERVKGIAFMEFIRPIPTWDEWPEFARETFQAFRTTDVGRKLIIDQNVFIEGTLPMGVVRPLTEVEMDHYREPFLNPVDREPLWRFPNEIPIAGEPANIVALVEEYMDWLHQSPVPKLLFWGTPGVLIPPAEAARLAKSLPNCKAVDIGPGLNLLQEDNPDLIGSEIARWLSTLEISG
Description: Labeling kinetics of HT7 with CA-TMR, CA-JF549, CA-CPY, CA-LIVE580, and CA-JF669 and labeling kinetics of HOB with CA-TMR were measured by recording fluorescence anisotropy changes over time using a BioLogic SFM-400 stopped-flow instrument (BioLogic Science Instruments, Claix, France) in a single-mixing configuration at 37 °C. HT7 protein and substrates in activity buffer were mixed in a 1:1 stoichiometry to reach a recordable speed for these fast reactions and to increase the information content of the traces. Concentrations were varied from 0.125 to 1 μM. The anisotropy of the free substrate was measured to obtain a baseline.
(§1) Kinetic stopped-flow data were preprocessed using a custom R script.[36],[37] Recorded pretrigger time points were removed, and time points were adjusted to start at time zero. Values from replicates were averaged. The anisotropy of the free dye was calculated by averaging anisotropy values of the baseline measurements. Preprocessed data were fitted to a kinetic model (eqs 5 and 6) described by differential eqs 7–10 using the DynaFit software.[38] The anisotropy of the free dye and the mixing delay of the stopped-flow machine were set as fixed offset and delay parameters in DynaFit. It was assumed that the protein substrate complex and the reacted product are contributing equally to the anisotropy signal. […] Standard deviations (normal distribution verified) and confidence intervals of fitted parameters were estimated with the Monte Carlo method[39] with standard settings (N = 1000, 5% worst fits discarded). In the case of SNAP kinetics with BG-TMR, the substrate concentration was fitted by DynaFit to rule out quantification errors of the BG-quenched fluorophore. Accurate fitting of the concentration was ensured by including conditions in which protein is limiting and no maximum FP value was reached.

HT7^D106A = target: T2, HT7^D106A (Rhodococcus sp., UniProt P59336, A155T/A167V/A224E/C128F/C176G/D106A/D78G/E160K/E257K/G292T/H272N/K175M/K195N/L47V/L88M/N227D/P291S/S2A/S58T/T264A/V172T/Y273L/Y87F); experiment: Affinity of HT7^D106A for CA substrates by fluorescence polarization; type: binding; settings: HT7^D106A
T2 construct: made in house; host or cells: E. coli BL21(DE3)-pLysS
T2 sequence (P59336 other isoform, or with tags, fused parts or gaps with the stated changes): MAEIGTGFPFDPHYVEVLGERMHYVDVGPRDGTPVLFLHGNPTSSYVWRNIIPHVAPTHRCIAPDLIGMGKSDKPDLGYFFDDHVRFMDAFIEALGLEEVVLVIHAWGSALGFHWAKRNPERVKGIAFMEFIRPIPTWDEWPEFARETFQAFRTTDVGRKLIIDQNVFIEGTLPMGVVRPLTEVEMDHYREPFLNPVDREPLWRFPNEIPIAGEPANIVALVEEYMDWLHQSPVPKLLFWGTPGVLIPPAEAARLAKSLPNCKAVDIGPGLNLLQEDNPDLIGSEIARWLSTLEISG
Description: Binding affinities of HT7^D106A or HOB^D106A for chloroalkane (CA) substrates were determined by fluorescence polarization (FP, eq 1) measurements using a microplate reader (Spark20M, Tecan Group AG, Männedorf, Switzerland). The fluorescent substrates (10 nM) were titrated against different protein concentrations (0–250 μM) in activity buffer supplemented with 0.5 g/L bovine serum albumin (BSA). Assays were performed in black low-volume nonbinding 384-well plates (Corning Inc., Corning, NY) with a final volume of 20 μL. Obtained FP values were averaged and fitted to a single-site binding model (eq 2) to estimate Kd values for each fluorescent substrate. The FP value of each dye fully reacted with the native HT7 was used to improve fitting of the upper plateau of the curves by adding an extra data point at a protein concentration of 0.1 M. [drawing 1] 1 where FP is the fluorescence polarization, I∥ is the fluorescence intensity parallel to the excitation light polarization, I⊥ is the fluorescence intensity perpendicular to the excitation light polarization, and G is the grating factor (G = I∥/I⊥). [drawing 2] 2 where FPmin is the fluorescence polarization of the free fluorophore (lower plateau), FPmax is the maximal fluorescence polarization of fully bound fluorophore (upper plateau), Kd is the dissociation constant, and [protein] is the protein concentration.
Free binding energies were calculated from Kd values according to eq 4: [drawing 4] 4 where ΔG is the free binding energy, R is the universal gas constant, T is the temperature, and Kd is the dissociation constant.

SNAP-tag (SNAP) [1] = target: T3, SNAP-tag (SNAP) (Homo sapiens, UniProt P16455, A127T/A154D/C150Q/C62A/G131K/G132T/G153L/K125A/K32I/L33F/M134L/N157G/Q115S/Q116H/R128A/R135S/S151G/S152D/S159E); experiment: SNAP competitive labeling kinetics against BG-Alexa488; type: biochemical; settings: nonfluorescent substrates, competition with BG-Alexa488
T3 construct: made in house; host or cells: E. coli BL21(DE3)-pLysS
T3 sequence (P16455 1-182 K32I/L33F/C62A/Q115S/Q116H/K125A/A127T/R128A/G131K/G132T/M134L/R135S/C150Q/S151G/S152D/G153L/A154D/N157G/S159E limits assumed): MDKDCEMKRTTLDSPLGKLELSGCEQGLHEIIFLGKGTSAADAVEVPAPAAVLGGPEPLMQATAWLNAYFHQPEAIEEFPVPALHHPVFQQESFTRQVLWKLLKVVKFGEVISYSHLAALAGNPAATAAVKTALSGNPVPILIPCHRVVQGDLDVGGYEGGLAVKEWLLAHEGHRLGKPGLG
Description: Competitive kinetics were measured by recording FP over time using a microplate reader in a manner analogous to that for HT7 competition kinetics described above using 100 nM BG-Alexa488 as the fluorescent substrate in SNAP-FP buffer.
Data were fitted to a simplified kinetic competition model (eqs 19 and 20) described by differential eqs 21–25 using DynaFit. The dead time of the measurements and baseline FP value were put in as fixed parameters. Standard deviations (normal distribution verified) and confidence intervals of fitted parameters were estimated with the Monte Carlo method with standard settings (N = 1000, 5% worst fits discarded). [drawing 19] 19 [drawing 20] 20 where P is the SLP protein, S is the fluorescent SLP substrate, I is the nonfluorescent SLP substrate (inhibitor), PS is the protein–fluorescent substrate conjugate, and PI is the protein–nonfluorescent substrate conjugate. [drawing 21] 21 [drawing 22] 22 [drawing 23] 23 [drawing 24] 24 [drawing 25] 25

SNAP^C145A = target: T4, SNAP^C145A (Homo sapiens, UniProt P16455, A127T/A154D/C145A/C150Q/C62A/G131K/G132T/G153L/K125A/K32I/L33F/M134L/N157G/Q115S/Q116H/R128A/R135S/S151G/S152D/S159E); experiment: Affinity of SNAP^C145A for nonfluorescent substrates via FP competition assay against CP-TMR; type: binding; settings: FP competition against CP-TMR, room temperature
T4 construct: made in house; host or cells: E. coli BL21(DE3)-pLysS
T4 sequence (P16455 1-182 K32I/L33F/C62A/Q115S/Q116H/K125A/A127T/R128A/G131K/G132T/M134L/R135S/C145A/C150Q/S151G/S152D/G153L/A154D/N157G/S159E limits assumed): T3 sequence (P16455 1-182 K32I/L33F/C62A/Q115S/Q116H/K125A/A127T/R128A/G131K/G132T/M134L/R135S/C150Q/S151G/S152D/G153L/A154D/N157G/S159E limits assumed) with C145A
Description: Binding affinities of SNAP^C145A for BG, CP, BG-Ac, CP-Ac, and BC-Ac were obtained as previously described for HT7 by titrating 5 μM protein and 50 nM CP-TMR against nonfluorescent substrate concentrations ranging from 150 nM to 1.5 mM. Experimental conditions and data analysis were identical despite the fact that 1 mM DTT was added to the buffer and the assay was performed at room temperature.

SNAP-tag (SNAP) [2] = target: T3, SNAP-tag (SNAP); experiment: SNAP labeling kinetics via microplate reader (FP over time); type: biochemical; settings: SNAP, plate reader, kinetic model 1
Description: (§2) Labeling kinetics of SNAP and CLIP substrates were measured by recording FP over time using a microplate reader in a manner analogous to that of HT7 labeling kinetics described above with the following changes. The fluorescent substrate concentration was fixed to 20 nM, and protein concentrations were varied from 15 to 900 nM. Measurements were performed in SNAP-FP buffer.
(§3) Kinetic data from microplate reader assays were fitted to a simplified kinetic model (eq 13) described by differential eqs 14–16 using DynaFit. The dead time of the measurements and baseline FP value were put in as fixed parameters. Standard deviations (normal distribution verified) and confidence intervals of fitted parameters were estimated with the Monte Carlo method with standard settings (N = 1000, 5% worst fits discarded). In the case of BG, CP, and BC kinetics, the substrate concentration was fitted by DynaFit to rule out quantification errors of the BG, CP, or BC fluorophores. Accurate fitting of the concentration was ensured by including conditions under which protein is limiting and no maximum FP value was reached.

[3] = target: T5, hAGT (human O^6-alkylguanine-DNA alkyltransferase) (Homo sapiens, UniProt P16455); experiment: hAGT labeling kinetics via microplate reader (FP over time); type: biochemical
T5 construct: StrepTag-II (N); enterokinase cleavage site (N); His10 (C); made in house; host or cells: E. coli BL21(DE3)-pLysS
T5 sequence (P16455 1-207): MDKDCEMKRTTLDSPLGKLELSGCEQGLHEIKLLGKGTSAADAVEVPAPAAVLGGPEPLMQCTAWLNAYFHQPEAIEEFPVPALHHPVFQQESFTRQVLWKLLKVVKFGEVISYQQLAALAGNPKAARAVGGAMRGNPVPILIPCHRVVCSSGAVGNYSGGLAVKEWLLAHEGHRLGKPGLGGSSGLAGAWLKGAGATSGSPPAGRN
Description: as §2, §3

CLIP-tag (CLIP) = target: T6, CLIP-tag (CLIP) (Homo sapiens, UniProt P16455, A121V/A127T/A154D/C150Q/C62A/G131N/G132T/G153S/K125A/K32I/L33F/M134L/M60I/N157P/Q115S/Q116H/R128A/R135D/S151G/S152D/S159L/Y114E); experiment: CLIP labeling kinetics via microplate reader (FP over time); type: biochemical; settings: CLIP, plate reader, kinetic model 1
T6 construct: made in house; host or cells: E. coli BL21(DE3)-pLysS
T6 sequence (P16455 1-182 K32I/L33F/M60I/C62A/Y114E/Q115S/Q116H/A121V/K125A/A127T/R128A/G131N/G132T/M134L/R135D/C150Q/S151G/S152D/G153S/A154D/N157P/S159L limits assumed): T3 sequence (P16455 1-182 K32I/L33F/C62A/Q115S/Q116H/K125A/A127T/R128A/G131K/G132T/M134L/R135S/C150Q/S151G/S152D/G153L/A154D/N157G/S159E limits assumed) with M60I, Y114E, A121V, K131N, S135D, L153S, G157P, E159L
Description: as §2, §3

SNAP-tag (SNAP) [4] = target: T3, SNAP-tag (SNAP); experiment: SNAP labeling kinetics via stopped flow (fluorescence anisotropy); type: biochemical; settings: model 2
Description: Labeling kinetics of SNAP with BG-TMR were measured via stopped-flow in a manner analogous to that for HT7 kinetics described above; however, the final substrate concentration was fixed at 2 μM, and the protein concentration was varied from 1.875 to 50 μM. The activity buffer was supplemented with 1 mM DTT.
as §1

Compound: CN(C)c1ccc2c(c1)C(C)(C)C1=CC(=[N+](C)C)C=CC1=C2c1cc(C(=O)NCCOCCOCCCCCCCl)ccc1C(=O)[O-] [CA-CPY, chloroalkane-PEG-carbopyronine]
- Kd (HaloTag7 (HT7)): 0.046 µM
- k2 (± S.D.) (HaloTag7 (HT7); HT7, stopped flow, model 2): 9.9 s-1 and 9.86 (± 0.73) s-1
- k-1 (± S.D.) (HaloTag7 (HT7); HT7, stopped flow, model 2): 7.60 (± 0.98) s-1
- fold decrease in affinity of the 5-substituted compared to the 6-substituted rhodamine substrate (HT7^D106A): 22.7 fold

- kapp (value ± standard deviation) (SNAP-tag (SNAP) [1]): (3.45 ± 0.38) × 10^3 M^–1 s^–1
- Kd (SNAP^C145A): 201 µM
Compound: CC(=O)NCc1ccc(COc2cc(Cl)nc(N)n2)cc1 [CP-Ac]

- kapp (value ± standard deviation) (SNAP-tag (SNAP) [2]): (7.69 ± 0.01) × 10^4 M^–1 s^–1
- times slower labeling of hAGT than of SNAP ([3]; hAGT vs SNAP): 20 times
- kapp (value ± standard deviation) ([3]; hAGT, plate reader, model 1): (3.13 ± 0.01) × 10^3 M^–1 s^–1
- kapp (value ± standard deviation) (CLIP-tag (CLIP)): (7.22 ± 0.04) × 10^0 M^–1 s^–1
- fold higher k–1 than BG-TMR (SNAP-tag (SNAP) [4]): 8.8 fold
- k2 (± S.D.) (SNAP-tag (SNAP) [4]): 1.58 (± 0.04) s-1
- k-1 (± S.D.) (SNAP-tag (SNAP) [4]): 8.96 (± 0.71) s-1
Compound: CN(C)c1ccc2c(-c3cc(C(=O)NCc4ccc(COc5cc(Cl)nc(N)n5)cc4)ccc3C(=O)[O-])c3ccc(=[N+](C)C)cc-3oc2c1 [CP-TMR]

Reference: publication PMC8388125, “Kinetic and Structural Characterization of the Self-Labeling Protein Tags HaloTag7, SNAP-tag, and CLIP-tag” (Biochemistry, 2021)
